# How the values were obtained:
# S. aureus = assay: Minimum inhibitory concentration against the S. aureus strain used in the studies; type: cell-based; settings: Staphylococcus aureus; strain of S. aureus used in the studies
# [1] = Solubility in extraction/HPLC solvents; type: physicochemical
smiles,measurement,setting,value
CO[C@H]1/C=C/O[C@@]2(C)Oc3c(C)c(O)c4c(O)c(c(/C=N/N5CCN(C)CC5)c(O)c4c3C2=O)NC(=O)/C(C)=C\C=C\[C@H](C)[C@H](O)[C@@H](C)[C@@H](O)[C@@H](C)[C@H](OC(C)=O)[C@@H]1C [rifampin],MIC,S. aureus,0.06 µg/mL
same,solubility in methanol and THF/ethanol 4:1,[1],good solubility
